Results as given in ChEMBL document CHEMBL1201862, “PubChem BioAssay data set” (2004).
Active and inactive are the calls of the source.

Assays:
[1] = HEp-2 cell cytotoxicity, dose response, cytotoxicity control for RSV inhibitor project, HTS (AID 2410); assay type: functional; conditions: human respiratory syncytial virus
BJ [2] = assay: cytotoxicity toward BJ-TERT fibroblasts, dose response, cell-based, RAS-independent, luminescence (AID 1933); assay type: functional; conditions: Homo sapiens
BJ [3] = assay: cells; assay type: functional, cell-based; conditions: Homo sapiens
BJ [4] = assay: cytotoxicity toward BJ-TERT-LT-ST fibroblasts, dose response, cell-based, RAS-independent, luminescence (AID 1935); assay type: functional; conditions: Homo sapiens;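 note: BJ fibroblasts immortalized with TERT plus LT and ST oncogenes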
[5] = cytotoxicity toward DRD oncogenic fibroblasts, dose response, cell-based, non-viral oncogenic, luminescence (AID 1934); assay type: functional; conditions: Homo sapiens
Vero [6] = assay: cells; assay type: functional, cell-based; conditions: Chlorocebus sabaeus
Vero [7] = assay: cells; assay type: functional; conditions: Chlorocebus sabaeus
cells [8] = assay: cells
[9] = M. tuberculosis H37Rv growth inhibitors, H37Rv strain (AID 1626); assay type: functional
Protein skinhead-1 = target: T1, Protein skinhead-1 (Caenorhabditis elegans, UniProt P34707); assay type: functional
T1 sequence (P34707 whole entry): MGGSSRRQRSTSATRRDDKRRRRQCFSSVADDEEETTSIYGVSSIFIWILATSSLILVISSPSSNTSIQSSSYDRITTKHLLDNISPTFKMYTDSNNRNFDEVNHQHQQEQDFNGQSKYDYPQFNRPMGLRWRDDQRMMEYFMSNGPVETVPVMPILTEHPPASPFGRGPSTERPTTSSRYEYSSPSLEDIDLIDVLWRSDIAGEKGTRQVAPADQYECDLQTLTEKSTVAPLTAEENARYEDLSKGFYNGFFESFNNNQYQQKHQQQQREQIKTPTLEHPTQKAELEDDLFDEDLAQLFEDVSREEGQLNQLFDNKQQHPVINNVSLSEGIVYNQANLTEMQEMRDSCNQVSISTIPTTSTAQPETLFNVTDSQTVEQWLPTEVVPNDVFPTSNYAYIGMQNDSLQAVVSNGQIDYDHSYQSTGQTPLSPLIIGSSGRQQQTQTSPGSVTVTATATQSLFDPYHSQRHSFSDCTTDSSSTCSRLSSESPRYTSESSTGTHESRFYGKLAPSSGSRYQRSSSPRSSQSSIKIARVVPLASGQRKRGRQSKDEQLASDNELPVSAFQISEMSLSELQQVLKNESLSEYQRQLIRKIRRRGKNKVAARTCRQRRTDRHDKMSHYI

[10] = target: T2, Oxysterols receptor LXR-beta (Homo sapiens, UniProt P55055); assay type: functional, cell-based;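 note: Cell-based luminescence dose-response assay of agonist activity at LXR, run as a confirmatory counterscreen to a daf-12 agonist screen; HEK293 cells with Gal4-LXR fusion and GAL4-driven luciferase reporter; agonist potency from rising luciferase signal of a Gal4-LXR reporter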
T2 sequence (P55055 whole entry): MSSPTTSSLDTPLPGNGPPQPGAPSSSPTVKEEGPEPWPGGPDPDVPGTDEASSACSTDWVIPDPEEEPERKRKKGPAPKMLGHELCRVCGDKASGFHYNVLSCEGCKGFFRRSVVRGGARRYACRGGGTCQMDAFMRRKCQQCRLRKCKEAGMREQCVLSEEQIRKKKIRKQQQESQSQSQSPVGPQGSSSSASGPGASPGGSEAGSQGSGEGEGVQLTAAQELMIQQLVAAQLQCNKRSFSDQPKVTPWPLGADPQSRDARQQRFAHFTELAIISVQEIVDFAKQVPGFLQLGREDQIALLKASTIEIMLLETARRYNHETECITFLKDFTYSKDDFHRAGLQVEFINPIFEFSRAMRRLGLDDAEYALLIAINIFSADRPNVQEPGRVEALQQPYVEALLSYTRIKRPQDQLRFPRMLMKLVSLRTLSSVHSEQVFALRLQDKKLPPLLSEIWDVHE

cells [11] = assay: cells; remark: listed apart in the source
[12] = target: Lysosomal acid glucosylceramidase (Homo sapiens, UniProt P04062); assay: Dose response cell-based high throughput screening assay to identify enhancers of beta-glucosidase activity. [Related pubchem assays: 784 ]; assay type: functional
Sequence of Lysosomal acid glucosylceramidase (P04062 whole entry): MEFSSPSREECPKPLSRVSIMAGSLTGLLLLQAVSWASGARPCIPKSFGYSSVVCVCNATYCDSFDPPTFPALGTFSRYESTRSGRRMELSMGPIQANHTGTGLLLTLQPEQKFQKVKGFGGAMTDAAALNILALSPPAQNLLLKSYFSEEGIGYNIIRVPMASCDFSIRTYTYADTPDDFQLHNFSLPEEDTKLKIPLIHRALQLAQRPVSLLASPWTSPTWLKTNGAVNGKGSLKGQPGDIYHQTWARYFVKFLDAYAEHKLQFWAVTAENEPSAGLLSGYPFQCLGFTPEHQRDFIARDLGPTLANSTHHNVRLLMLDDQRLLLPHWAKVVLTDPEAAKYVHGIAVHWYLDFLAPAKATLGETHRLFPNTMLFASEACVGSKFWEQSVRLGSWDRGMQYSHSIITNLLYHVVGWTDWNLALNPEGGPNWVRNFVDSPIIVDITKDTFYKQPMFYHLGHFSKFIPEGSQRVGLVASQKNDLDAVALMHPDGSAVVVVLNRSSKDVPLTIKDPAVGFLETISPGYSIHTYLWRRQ

[13] = Luminescence Cell-Based Dose Response to Identify Activators of 5'UTR Stem-Loop Driven Prion Protein mRNA Translation in H4-C Neuroglioblastoma Cells. [Related pubchem assays: 1829 (Project Summary), 1814 (Primary HTS)]; assay type: functional
[14] = Luminescence Cell-Based Dose Response HTS to Identify Activators of Luciferase Translation or Activity in H4 […] Cells. [Related pubchem assays: 1829 (Project Summary), 1814 (Primary HTS)]; assay type: functional
H4 = assay: Luminescence Cell-Based Dose Response HTS to Identify Activators of 5'UTR Stem-Loop Driven Prion Protein mRNA Translation in H4 Neuroglioblastoma Cells. [Related pubchem assays: 1829 (Project Summary), 1814 (Primary HTS)]; assay type: functional; conditions: Homo sapiens
[15] = Luminescence Cell-Based Dose Response to Identify Activators of Luciferase Translation or Activity in H4-C Neuroglioblastoma Cells. [Related pubchem assays: 1829 (Project Summary), 1814 (Primary HTS)]; assay type: functional
[16] = cytotoxicity in HPDE-C7 cells, cell-based, fluorescence, HTS (AID 430); assay type: functional; conditions: Homo sapiens
[17] = cytotoxicity in KRAS-transformed pancreatic duct cells, primary screen, cell-based, fluorescence, HTS (AID 431); assay type: functional; conditions: Homo sapiens;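 note: cell line used: HPDE-C7K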
[18] = Luminescence Cell-Based Dose Confirmation to Identify Activators of 5'UTR Stem-Loop Driven Alpha-Synuclein mRNA Translation in H4 Neuroglioblastoma Cells. [Related pubchem assays: 1829 (Project Summary), 1814 (Primary HTS)]; assay type: functional
Caspase-3 = target: T3, Caspase-3 (Homo sapiens, UniProt P42574); assay type: functional;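 note: Dose-response selectivity test against caspase-3 for candidate inhibitors of sentrin-specific proteases (SENPs)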
T3 sequence (P42574 whole entry): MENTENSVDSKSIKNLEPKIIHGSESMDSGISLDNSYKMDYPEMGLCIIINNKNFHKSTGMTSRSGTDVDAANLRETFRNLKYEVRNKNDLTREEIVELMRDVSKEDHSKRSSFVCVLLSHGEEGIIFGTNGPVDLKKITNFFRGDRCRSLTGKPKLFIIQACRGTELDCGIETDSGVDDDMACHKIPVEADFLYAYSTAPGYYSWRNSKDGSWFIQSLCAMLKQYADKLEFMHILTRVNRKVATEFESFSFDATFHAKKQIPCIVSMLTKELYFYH

[19] = target: T4, Sentrin-specific protease 7 (Homo sapiens, UniProt Q9BQF6); assay type: functional;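 note: Luminescence-based dose-response confirmation of ultra-high-throughput screening hits, measuring inhibition of SENP7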
T4 sequence (Q9BQF6 whole entry): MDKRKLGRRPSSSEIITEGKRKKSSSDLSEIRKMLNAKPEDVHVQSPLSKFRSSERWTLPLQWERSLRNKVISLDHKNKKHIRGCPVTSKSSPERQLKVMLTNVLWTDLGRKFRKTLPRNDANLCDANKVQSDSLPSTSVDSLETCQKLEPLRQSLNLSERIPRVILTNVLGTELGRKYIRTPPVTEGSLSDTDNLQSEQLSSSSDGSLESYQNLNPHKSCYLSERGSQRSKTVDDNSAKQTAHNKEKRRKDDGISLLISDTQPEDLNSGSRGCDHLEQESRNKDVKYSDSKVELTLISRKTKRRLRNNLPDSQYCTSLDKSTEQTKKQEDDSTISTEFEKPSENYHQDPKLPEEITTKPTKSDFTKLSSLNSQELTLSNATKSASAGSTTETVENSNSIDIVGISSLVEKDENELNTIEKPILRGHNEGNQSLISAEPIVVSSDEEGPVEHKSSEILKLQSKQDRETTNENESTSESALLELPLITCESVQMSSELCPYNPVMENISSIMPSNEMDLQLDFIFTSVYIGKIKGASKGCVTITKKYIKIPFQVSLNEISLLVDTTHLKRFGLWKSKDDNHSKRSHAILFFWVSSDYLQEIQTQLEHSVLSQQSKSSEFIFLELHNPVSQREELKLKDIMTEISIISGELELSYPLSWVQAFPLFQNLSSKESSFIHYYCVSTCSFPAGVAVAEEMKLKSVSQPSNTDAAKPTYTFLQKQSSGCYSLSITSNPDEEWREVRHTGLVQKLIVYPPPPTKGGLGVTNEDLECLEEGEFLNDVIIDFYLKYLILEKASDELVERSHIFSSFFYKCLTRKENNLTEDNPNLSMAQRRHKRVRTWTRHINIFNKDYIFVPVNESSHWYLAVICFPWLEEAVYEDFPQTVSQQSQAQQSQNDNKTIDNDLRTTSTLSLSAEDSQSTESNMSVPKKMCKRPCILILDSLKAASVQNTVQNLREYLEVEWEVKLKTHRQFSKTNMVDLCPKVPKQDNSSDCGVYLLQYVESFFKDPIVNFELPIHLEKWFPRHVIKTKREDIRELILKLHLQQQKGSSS

[20] = target: T5, Sentrin-specific protease 6 (Homo sapiens, UniProt Q9GZR1); assay type: functional;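 note: Luminescence-based dose-response confirmatory assay of SENP6 inhibition, following up an ultra-high-throughput screen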
T5 sequence (Q9GZR1 whole entry): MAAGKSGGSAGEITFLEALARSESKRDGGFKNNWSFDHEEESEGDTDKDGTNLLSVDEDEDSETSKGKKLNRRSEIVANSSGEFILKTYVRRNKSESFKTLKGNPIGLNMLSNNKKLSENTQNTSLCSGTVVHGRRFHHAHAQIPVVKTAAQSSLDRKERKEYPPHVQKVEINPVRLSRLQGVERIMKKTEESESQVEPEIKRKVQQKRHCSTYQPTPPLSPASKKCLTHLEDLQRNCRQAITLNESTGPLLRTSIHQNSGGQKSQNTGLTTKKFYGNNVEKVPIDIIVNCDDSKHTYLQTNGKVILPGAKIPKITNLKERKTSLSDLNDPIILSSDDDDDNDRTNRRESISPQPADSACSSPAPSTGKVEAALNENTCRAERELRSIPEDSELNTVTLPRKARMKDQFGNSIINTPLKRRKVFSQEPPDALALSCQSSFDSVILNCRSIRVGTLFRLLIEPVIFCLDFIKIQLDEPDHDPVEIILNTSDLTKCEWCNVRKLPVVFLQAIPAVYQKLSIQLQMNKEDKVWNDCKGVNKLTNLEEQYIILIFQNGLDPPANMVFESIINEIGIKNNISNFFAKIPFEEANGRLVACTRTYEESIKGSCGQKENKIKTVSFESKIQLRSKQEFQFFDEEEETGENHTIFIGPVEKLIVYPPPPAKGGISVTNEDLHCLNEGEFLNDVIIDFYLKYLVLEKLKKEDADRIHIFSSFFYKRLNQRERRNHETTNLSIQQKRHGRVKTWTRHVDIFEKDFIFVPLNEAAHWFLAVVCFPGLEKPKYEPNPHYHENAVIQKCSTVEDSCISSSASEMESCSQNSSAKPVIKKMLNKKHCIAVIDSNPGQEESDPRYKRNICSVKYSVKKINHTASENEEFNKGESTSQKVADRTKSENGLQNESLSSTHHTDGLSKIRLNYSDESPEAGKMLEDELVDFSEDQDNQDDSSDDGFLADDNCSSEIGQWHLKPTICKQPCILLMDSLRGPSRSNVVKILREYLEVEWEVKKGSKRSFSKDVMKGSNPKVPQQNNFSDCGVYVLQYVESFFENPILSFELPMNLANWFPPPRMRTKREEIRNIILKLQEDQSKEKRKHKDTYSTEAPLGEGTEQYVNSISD

[21] = target: T6, Sentrin-specific protease 8 (Homo sapiens, UniProt Q96LD8); assay type: functional;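 note: luminescence read-out of SENP8 inhibition, dose-response confirmation following an ultra-high-throughput screen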
T6 sequence (Q96LD8 whole entry): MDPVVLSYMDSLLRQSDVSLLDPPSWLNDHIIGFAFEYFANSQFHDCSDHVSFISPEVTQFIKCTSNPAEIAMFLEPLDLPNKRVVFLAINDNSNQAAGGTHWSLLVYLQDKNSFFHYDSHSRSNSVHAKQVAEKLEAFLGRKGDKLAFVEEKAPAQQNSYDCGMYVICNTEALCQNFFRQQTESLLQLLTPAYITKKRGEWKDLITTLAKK

[22] = target: Disintegrin and metalloproteinase domain-containing protein 17 (Homo sapiens, UniProt P78536); assay: exosite inhibitors of ADAM17, dose response, biochemical (AID 743260)
Sequence of Disintegrin and metalloproteinase domain-containing protein 17 (P78536 whole entry, the tested form may be a part): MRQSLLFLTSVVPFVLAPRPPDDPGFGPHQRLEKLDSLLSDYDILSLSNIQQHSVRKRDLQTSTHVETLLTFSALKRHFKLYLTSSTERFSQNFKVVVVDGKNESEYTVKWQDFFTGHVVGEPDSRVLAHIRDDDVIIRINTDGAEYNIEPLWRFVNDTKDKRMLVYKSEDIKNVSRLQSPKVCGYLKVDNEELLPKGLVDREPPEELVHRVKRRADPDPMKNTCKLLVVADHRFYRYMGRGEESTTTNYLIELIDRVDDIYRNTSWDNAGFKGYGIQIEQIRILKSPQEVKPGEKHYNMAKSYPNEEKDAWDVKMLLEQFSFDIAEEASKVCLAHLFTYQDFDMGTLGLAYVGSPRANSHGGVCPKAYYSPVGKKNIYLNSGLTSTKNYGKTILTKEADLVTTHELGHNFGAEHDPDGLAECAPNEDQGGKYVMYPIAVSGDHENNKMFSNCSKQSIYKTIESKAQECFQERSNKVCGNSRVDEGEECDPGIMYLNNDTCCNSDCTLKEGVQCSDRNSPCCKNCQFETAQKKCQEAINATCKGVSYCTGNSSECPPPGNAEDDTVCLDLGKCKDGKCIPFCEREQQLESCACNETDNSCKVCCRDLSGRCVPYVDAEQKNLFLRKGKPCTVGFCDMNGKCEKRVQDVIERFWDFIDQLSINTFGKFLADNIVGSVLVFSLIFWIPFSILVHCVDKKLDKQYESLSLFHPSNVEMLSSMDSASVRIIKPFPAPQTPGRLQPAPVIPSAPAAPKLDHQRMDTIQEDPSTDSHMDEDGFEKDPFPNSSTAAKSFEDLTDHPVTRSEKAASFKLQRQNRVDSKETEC

Aminopeptidase N = Aminopeptidase N (Plasmodium falciparum FcB1/Columbia, UniProt O96935); assay: P. falciparum M1AAP inhibitors, biochemical, fluorogenic H-Leu-NHMec substrate, 1536-well (AID 1445); design: species or system Plasmodium falciparum 3D7, 3D7
Sequence of Aminopeptidase N (O96935 whole entry): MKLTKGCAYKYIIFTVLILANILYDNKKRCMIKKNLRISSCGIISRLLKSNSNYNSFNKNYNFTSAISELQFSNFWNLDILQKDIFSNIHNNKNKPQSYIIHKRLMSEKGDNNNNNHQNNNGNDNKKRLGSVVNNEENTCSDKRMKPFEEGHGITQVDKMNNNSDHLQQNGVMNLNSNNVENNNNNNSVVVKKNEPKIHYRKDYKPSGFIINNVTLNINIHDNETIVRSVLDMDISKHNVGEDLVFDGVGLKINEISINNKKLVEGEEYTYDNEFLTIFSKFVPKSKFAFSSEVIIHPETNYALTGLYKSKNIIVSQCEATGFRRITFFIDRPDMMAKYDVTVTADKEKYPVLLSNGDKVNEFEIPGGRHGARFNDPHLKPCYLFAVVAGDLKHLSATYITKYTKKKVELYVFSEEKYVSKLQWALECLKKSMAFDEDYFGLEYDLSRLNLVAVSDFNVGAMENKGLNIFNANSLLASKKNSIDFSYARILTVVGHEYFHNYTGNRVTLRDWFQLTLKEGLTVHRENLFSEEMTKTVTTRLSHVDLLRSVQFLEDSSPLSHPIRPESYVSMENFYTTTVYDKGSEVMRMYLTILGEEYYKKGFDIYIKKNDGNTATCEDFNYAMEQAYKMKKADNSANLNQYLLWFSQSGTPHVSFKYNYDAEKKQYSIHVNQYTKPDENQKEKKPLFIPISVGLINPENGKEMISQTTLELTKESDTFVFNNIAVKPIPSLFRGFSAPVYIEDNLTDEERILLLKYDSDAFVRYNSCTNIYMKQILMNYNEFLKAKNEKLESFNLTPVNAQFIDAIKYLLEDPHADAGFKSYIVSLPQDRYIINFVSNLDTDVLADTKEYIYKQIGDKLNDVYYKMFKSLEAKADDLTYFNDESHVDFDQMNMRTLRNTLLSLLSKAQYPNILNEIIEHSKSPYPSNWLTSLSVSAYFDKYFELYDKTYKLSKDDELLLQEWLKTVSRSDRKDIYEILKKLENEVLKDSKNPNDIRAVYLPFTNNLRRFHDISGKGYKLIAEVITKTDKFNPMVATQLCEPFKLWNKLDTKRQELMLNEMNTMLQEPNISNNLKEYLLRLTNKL

[23] = target: T7, Polyadenylate-binding protein 1 (Homo sapiens, UniProt P11940); assay: PABP1 MLLE–PAM2 interaction inhibitors, dose response, miRNA deadenylation inhibitor project, biochemical, fluorescence polarization, Cy5-PAM2 peptide, secondary (AID 602260); assay type: functional; conditions: read-out: IC50_Mean
T7 sequence (P11940 whole entry): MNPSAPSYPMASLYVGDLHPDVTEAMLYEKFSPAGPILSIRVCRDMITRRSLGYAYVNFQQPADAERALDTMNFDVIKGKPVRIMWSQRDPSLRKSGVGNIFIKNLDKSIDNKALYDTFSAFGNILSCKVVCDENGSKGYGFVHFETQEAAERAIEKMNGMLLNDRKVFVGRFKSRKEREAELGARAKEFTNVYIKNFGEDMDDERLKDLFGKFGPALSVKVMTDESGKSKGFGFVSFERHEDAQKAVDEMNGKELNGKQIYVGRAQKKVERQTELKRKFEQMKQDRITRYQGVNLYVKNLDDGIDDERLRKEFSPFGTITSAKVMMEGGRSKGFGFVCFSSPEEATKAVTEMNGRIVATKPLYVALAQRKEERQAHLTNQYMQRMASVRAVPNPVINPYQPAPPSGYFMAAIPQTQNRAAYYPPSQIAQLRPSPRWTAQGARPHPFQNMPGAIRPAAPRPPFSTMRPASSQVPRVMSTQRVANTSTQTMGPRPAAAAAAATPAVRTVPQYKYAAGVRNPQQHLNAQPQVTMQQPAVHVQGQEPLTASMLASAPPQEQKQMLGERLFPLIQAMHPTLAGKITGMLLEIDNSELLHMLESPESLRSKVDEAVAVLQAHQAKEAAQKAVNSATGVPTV

[24] = target: T7, Polyadenylate-binding protein 1; assay: PABP1 MLLE–PAM2 binding inhibitor potency, dose response, biochemical, fluorescence polarization, FITC-PAM2 peptide (AID 602259); assay type: functional; conditions: read-out: IC50_Mean
[25] = inhibitors of intracellular T. cruzi replication, confirmation, NIH3T3 host cells, beta-gal luminescence (AID 2044); assay type: functional, cell-based;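 note: intracellular parasites grown in NIH/3T3 mouse fibroblasts as host cells; luminescent beta-galactosidase reporter signal from transgenic T. cruzi replicating inside host cells; inhibitors lower the luminescence signal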
[26] = cytotoxicity toward NIH3T3 fibroblasts, dose response, counter-screen, cell-based, ATP luminescence, mouse fibroblasts (AID 2010); assay type: functional;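 note: cells exposed to compound for about 90 hours before reading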

COc1cc(NC(=S)NC(=O)c2ccc(C(C)(C)C)cc2)ccc1NC(=O)c1cccs1
CC50 [1]: 18.9 µM (active)
EC50 (BJ [2]): 60.4 µM (active)
EC50 (BJ [3]): 32.9 µM (inconclusive)
EC50 (BJ [4]): > 150 µM (inconclusive)
EC50 [5]: 72.6 µM (active)
IC50 (Vero [6]): 2.5 µM (active)
CC50 (Vero [7]): > 25 µM (active)
IC50 (cells [8]): 8.44 µM (active)

Cc1ccc(N/C=C(/C(=O)c2ccco2)C(=O)C(F)(F)F)cc1Cl
IC50 [9]: > 100 µM (active)
IC50 (Protein skinhead-1): 27.2 µM (active)
EC50 [10]: > 67.5 µM (inactive)
EC50 (cells [11]): > 67.5 µM (inactive)

O=C(CCS(=O)(=O)c1cccc2nonc12)N1CCCc2ccccc21
EC50 [12]: > 50 µM (not active)

CC(C)(C)c1ccc(OCc2nc(-c3ccccn3)no2)c(Br)c1
EC50 [13]: 0.683 µM (active)
EC50 [14]: < 0.1 µM (active)
EC50 (H4): < 0.1 µM (active)
EC50 [15]: 0.91 µM (active)
EC50 [16]: 11.5 µM (active)
EC50 [17]: 11.9 µM (active)
EC50 [18]: 0.114 µM (active)
IC50 (Caspase-3): 33.8 µM (active)
IC50 [19]: 5.88 µM (active)
IC50 [20]: 17.6 µM (active)
IC50 [21]: 13.5 µM (active)
IC50 [22]: > 69.5 µM (inactive)

Sc1nnc(Cc2ccccc2)n1Cc1ccco1
EC50 [12]: > 50 µM (not active)

CCNc1cc2oc(=O)c(CN3CCOCC3)c(C)c2cc1C
IC50 (Aminopeptidase N): 32.2 µM (active)
IC50 [23]: > 66 µM (inactive)
IC50 [24]: > 66 µM (inactive)

CCOc1ccc2nc(NC(=O)CSC3=NCCS3)sc2c1
IC50 [9]: > 100 µM (active)

COC(=O)c1cc(NC(=O)CC2S/C(=N/c3ccccc3)N(CCc3c[nH]c4ccccc34)C2=O)cc(C(=O)OC)c1 (centres undefined)
CC50 [1]: > 50 µM (active)
EC50 [25]: 1.11 µM (active)
EC50 [26]: > 60 µM (inconclusive)
IC50 (cells [8]): 41.7 µM (active)
